Converted amounts (≈) assume the structure as drawn.
Experiments:
Format in all cases: cell-based
[1] = system: Escherichia coli ATCC 25922; assay: MIC, standard microdilution technique
Excerpt: (§1) The antibacterial activities of the compounds have been determined by standard microdilution technique (National Committee for Clinical Laboratory Standards. 2000. Methods for Dilution Antimicrobial Susceptibility Tests for Bacteria that Grow Aerobically, 5th edition. Approved standard M7-A5. National Committee for Clinical Laboratory Standards, Wayne, Pa.).

[2] = system: Staphylococcus aureus 1086; assay: MIC, standard microdilution technique
Excerpt: as §1

[3] = system: Staphylococcus aureus 745; assay: MIC, standard microdilution technique
Excerpt: as §1

[4] = system: Staphylococcus aureus ATCC 29213; assay: MIC, standard microdilution technique
Excerpt: as §1

[5] = system: Streptococcus pneumoniae 12288; assay: MIC, standard microdilution technique
Excerpt: as §1

[6] = system: Streptococcus pneumoniae SL199T; assay: MIC, standard microdilution technique
Excerpt: as §1

[7] = system: Streptococcus pneumoniae l/l; assay: MIC, standard microdilution technique
Excerpt: as §1

[8] = system: Streptococcus pneumoniae ¼; assay: MIC, standard microdilution technique
Excerpt: as §1

[9] = system: Haemophilus influenzae 12214; assay: MIC, standard agar dilution method using HTM medium
Excerpt: as §1, with “biological” for “antibacterial”, “of compounds of” for “of”, “present invention against Haemophilus influenzae” for “compounds”, “agar dilution method using HTM medium” for “microdilution technique”

[10] = system: Haemophilus influenzae B1501; assay: as above
Excerpt: as §1, with “biological” for “antibacterial”, “of compounds of” for “of”, “present invention against Haemophilus influenzae” for “compounds”, “agar dilution method using HTM medium” for “microdilution technique”

[11] = system: Haemophilus influenzae QK12/87; assay: as above
Excerpt: as §1, with “biological” for “antibacterial”, “of compounds of” for “of”, “present invention against Haemophilus influenzae” for “compounds”, “agar dilution method using HTM medium” for “microdilution technique”

[12] = system: Haemophilus influenzae QK50; assay: as above
Excerpt: as §1, with “biological” for “antibacterial”, “of compounds of” for “of”, “present invention against Haemophilus influenzae” for “compounds”, “agar dilution method using HTM medium” for “microdilution technique”

Row | minimum inhibitory concentration (MIC), Strain D [1] [µg/mL] | minimum inhibitory concentration (MIC), Strain B [2] [µg/mL] | minimum inhibitory concentration (MIC), Strain C [3] [µg/mL] | minimum inhibitory concentration (MIC), Strain A [4] [µg/mL] | minimum inhibitory concentration (MIC), Strain H [5] [µg/mL] | minimum inhibitory concentration (MIC), Strain G [6] [µg/mL] | minimum inhibitory concentration (MIC), Strain E [7] | minimum inhibitory concentration (MIC), Strain F [8] [µg/mL] | minimum inhibitory concentration (MIC), Strain K [9] [µg/mL] | minimum inhibitory concentration (MIC), Strain M [10] [µg/mL] | minimum inhibitory concentration (MIC), Strain I [11] [µg/mL] | minimum inhibitory concentration (MIC), Strain L [12] [µg/mL] | Compound | further results
1 |  |  |  |  |  |  |  |  |  |  |  |  | CC[C@H]1OC(=O)[C@H](C)C(=O)[C@H](C)[C@@H](O[C@@H]2O[C@H](C)C[C@H](N(C)C)[C@H]2O)[C@](C)(OC)C[C@@H](C)C(=O)[C@H](C)[C@H]2[C@@H](SCCNC(=O)c3cccnc3)C(=O)O[C@@]21C (single isomer, unassigned) [Example 19, (3R or S, 3aR, 4R or S, 6R, 8R, 9R, 10R, 12R, 15R, 15aS) -15-Ethyloctahydro-8-methoxy-4,6,8,10,12,15a-hexamethyl-3-[[2-[(3-pyridinylcarbonyl)amino]ethyl]thio]-9-[[-3,4,6-trideoxy-3-(dimethylamino)-β-D-xylo-hexopyranosyl]oxy]-2H-furo [2,3-c] oxacyclotetradecin-2,5,11,13 (3H,6H,12H)-tetrone] | MIC ([1]; ATCC25922, read-out: minimum inhibitory concentration (MIC), Strain D): > 32 µg/mL; MIC ([2]; read-out: minimum inhibitory concentration (MIC), Strain B): 0.25 µg/mL (≈ 0.316 µM); MIC ([3]; read-out: minimum inhibitory concentration (MIC), Strain C): > 32 µg/mL; MIC ([4]; ATCC29213, read-out: minimum inhibitory concentration (MIC), Strain A): 0.25 µg/mL (≈ 0.316 µM); MIC ([5]; read-out: minimum inhibitory concentration (MIC), Strain H): > 32 µg/mL; MIC ([6]; read-out: minimum inhibitory concentration (MIC), Strain G): 32 µg/mL (≈ 40.4 µM); MIC ([7]; read-out: minimum inhibitory concentration (MIC), Strain E): 0.125 µg/mL (≈ 0.158 µM); MIC ([8]; read-out: minimum inhibitory concentration (MIC), Strain F): 2 µg/mL (≈ 2.53 µM); MIC ([9]; read-out: minimum inhibitory concentration (MIC), Strain K): 4 µg/mL (≈ 5.05 µM); MIC ([10]; read-out: minimum inhibitory concentration (MIC), Strain M): 4 µg/mL (≈ 5.05 µM); MIC ([11]; read-out: minimum inhibitory concentration (MIC), Strain I): 4 µg/mL (≈ 5.05 µM); MIC ([12]; read-out: minimum inhibitory concentration (MIC), Strain L): 8 µg/mL (≈ 10.1 µM)
2 | >32 | 0.125 (≈ 0.137 µM) | >32 | 0.125 (≈ 0.137 µM) | 32 (≈ 35.2 µM) | 16 (≈ 17.6 µM) | <=0.06 μg/ml | 8 (≈ 8.79 µM) | 16 (≈ 17.6 µM) | 16 (≈ 17.6 µM) | 32 (≈ 35.2 µM) | 16 (≈ 17.6 µM) | CC[C@H]1OC(=O)[C@H](C)C(=O)[C@H](C)[C@@H](O[C@@H]2O[C@H](C)C[C@H](N(C)C)[C@H]2O)[C@](C)(OC)C[C@@H](C)C(=O)[C@H](C)[C@H]2[C@@H](SCCNS(=O)(=O)c3ccc(-c4ccccn4)s3)C(=O)O[C@@]21C (single isomer, unassigned) [Example 21] | 
3 | >32 | 16 (≈ 20.4 µM) | >32 | 16 (≈ 20.4 µM) | >32 | >32 | 1 µg/mL (≈ 1.28 µM) | >32 | >32 | >32 | >32 | >32 | CC[C@H]1OC(=O)[C@H](C)C(=O)[C@H](C)[C@@H](O[C@@H]2O[C@H](C)C[C@H](N(C)C)[C@H]2O)[C@](C)(OC)C[C@@H](C)C(=O)[C@H](C)[C@H]2[C@@H](SCC#Cc3ccc(C#N)cc3)C(=O)O[C@@]21C (single isomer, unassigned) [Example 23] | 
4 | >32 | 0.125 (≈ 0.148 µM) | 32 (≈ 37.8 µM) | 0.25 (≈ 0.295 µM) | 4 (≈ 4.73 µM) | 2 (≈ 2.36 µM) | <=0.06 μg/ml | 0.125 (≈ 0.148 µM) | 4 (≈ 4.73 µM) | 8 (≈ 9.46 µM) | 8 (≈ 9.46 µM) | 4 (≈ 4.73 µM) | CC[C@H]1OC(=O)[C@@](C)(F)C(=O)[C@H](C)[C@@H](O[C@@H]2O[C@H](C)C[C@H](N(C)C)[C@H]2O)[C@](C)(OC)C[C@@H](C)C(=O)[C@H](C)[C@H]2[C@@H](SCC(=O)Nc3cccc4cccnc34)C(=O)O[C@@]21C (single isomer, unassigned) [Example 25] | 
